Assay [1] deals with Heat shock protein HSP 90-alpha (Homo sapiens, UniProt P07900). The experiment in a line: Luminescence-based dose response biochemical high throughput screening assay for inhibitors of the Heat Shock Protein 90 (HSP90). [Related pubchem assays: 1831 (Summary AID.), 1846 (Confirmation screen.), 1789 (Primary screen.)].
Assay [2] relates to Vero. The experiment in a line: mammalian cell viability reduction – secondary assay, cytotoxicity control for West Nile virus antiviral project, dose response (AID 1650). In kind it is functional. To be noted: Chlorocebus sabaeus.
Assay [3] concerns the target Bifunctional protein GlmU (Mycobacterium tuberculosis, UniProt P9WMN3). Put plainly: Inhibitors of Mycobacterial Glucosamine-1-phosphate acetyl transferase (GlmU). Secondary screen. Also noted: species or system Mycobacterium tuberculosis H37Rv.
In assay [4] the target is Genome polyprotein (dengue virus type 2, UniProt P29990). The experiment in a line: flavivirus cap methylation enzyme inhibition – biochemical, confirmation dose response, primary screen (AID 588689). It counts as functional.
In assay [5] the target is Protein Tat (Human immunodeficiency virus type 1 group M subtype B (isolate HXB2)(HIV-1), UniProt P04608). It counts as functional.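 Note: tat binding to TAR RNA read out by fluorescence polarization.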
The target of assay [6] is Ephrin type-A receptor 4 (Mus musculus, UniProt Q03137). The experiment in a line: EphA4 ligand-binding antagonists – biochemical, colorimetric, mouse EphA4, primary screen (AID 689). It counts as functional.
Assay [7] addresses Disintegrin and metalloproteinase domain-containing protein 17 (Homo sapiens, UniProt P78536). Put plainly: exosite inhibitors of ADAM17, dose response, biochemical (AID 743260).
The nature of assay [8]: inhibition of ADAM10 peptide cleavage – biochemical, FRET peptide substrate, recombinant human ADAM10, selectivity assay for ADAM17 exosite inhibitor project, dose response (AID 743259).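 Note: ADAM10 enzyme cleaving a FRET peptide substrate.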
Assay [9] concerns the target T1, RNA-binding protein pos-1 (Caenorhabditis elegans, UniProt G5EF15).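 Note: purified POS-1 fused to maltose binding protein made in E. coli; potency of compounds blocking POS-1 binding to fluorescent RNA.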
T1 sequence (G5EF15 whole entry): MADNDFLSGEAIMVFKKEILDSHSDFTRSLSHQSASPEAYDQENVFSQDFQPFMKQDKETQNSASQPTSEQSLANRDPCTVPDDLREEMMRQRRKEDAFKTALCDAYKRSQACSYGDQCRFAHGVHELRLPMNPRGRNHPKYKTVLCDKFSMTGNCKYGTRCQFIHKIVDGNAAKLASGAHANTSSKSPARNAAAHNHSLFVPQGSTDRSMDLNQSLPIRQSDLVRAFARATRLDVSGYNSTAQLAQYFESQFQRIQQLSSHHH
Put plainly: disruptors of C. elegans POS-1 RNA interaction – biochemical, fluorescence polarization, dose response (AID 1964). (In fluorescence polarisation assays a small probe gives low polarisation when free and higher when bound to something large.)

Assay [10] addresses T2, Zinc finger protein mex-5 (Caenorhabditis elegans, UniProt Q9XUB2).
T2 sequence (Q9XUB2 whole entry): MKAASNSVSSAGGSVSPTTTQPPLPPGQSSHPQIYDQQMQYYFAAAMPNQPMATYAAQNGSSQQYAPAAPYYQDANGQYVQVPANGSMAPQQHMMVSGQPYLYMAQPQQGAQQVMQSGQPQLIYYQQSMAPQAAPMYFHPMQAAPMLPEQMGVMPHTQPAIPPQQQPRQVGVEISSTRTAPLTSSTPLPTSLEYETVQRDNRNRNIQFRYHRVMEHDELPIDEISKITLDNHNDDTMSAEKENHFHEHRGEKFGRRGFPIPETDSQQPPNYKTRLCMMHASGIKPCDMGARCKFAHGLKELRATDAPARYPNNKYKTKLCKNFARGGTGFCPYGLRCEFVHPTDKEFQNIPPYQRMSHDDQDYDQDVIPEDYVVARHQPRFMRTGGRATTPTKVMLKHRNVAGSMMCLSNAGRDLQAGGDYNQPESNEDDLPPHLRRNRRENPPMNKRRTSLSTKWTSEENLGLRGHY
The experiment in a line: potency of MEX-5 RNA-binding blockers – biochemical, C. elegans, fluorescence polarization, dose response (AID 1960).

Assay [11] is described as follows: Luminescence-based cell-based high throughput dose response assay to identify activators of the DAF-12 from the parasite S. stercoralis (ssDAF-12). It counts as functional.
For assay [12], the target named is T3, Oxysterols receptor LXR-beta (Homo sapiens, UniProt P55055).
T3 sequence (P55055 whole entry): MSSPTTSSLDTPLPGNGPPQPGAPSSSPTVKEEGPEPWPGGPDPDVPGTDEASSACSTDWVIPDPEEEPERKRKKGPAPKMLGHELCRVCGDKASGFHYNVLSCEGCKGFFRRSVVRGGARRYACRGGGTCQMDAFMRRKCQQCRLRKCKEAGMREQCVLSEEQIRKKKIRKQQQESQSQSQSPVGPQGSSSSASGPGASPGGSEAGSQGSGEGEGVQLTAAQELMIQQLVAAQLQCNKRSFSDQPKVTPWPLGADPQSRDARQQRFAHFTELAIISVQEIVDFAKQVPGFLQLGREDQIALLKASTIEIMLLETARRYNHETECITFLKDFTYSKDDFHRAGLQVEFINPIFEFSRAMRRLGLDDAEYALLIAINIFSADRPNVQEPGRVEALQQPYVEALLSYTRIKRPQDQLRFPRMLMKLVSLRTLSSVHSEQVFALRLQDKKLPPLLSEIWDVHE
The experiment in a line: LXR agonists, Gal4 luciferase reporter, dose response, counter-screen for ssDAF-12 agonist project, cell-based, luminescence, HEK293, S. stercoralis campaign (AID 720737). In kind it is functional. To be noted: read-out: IC50 (the source's name). In general terms: A reporter such as luciferase makes a cellular process visible.

The target in assay [13] is Luciferin 4-monooxygenase (Photinus pyralis, UniProt P08659). The experiment in a line: inhibition of purified Photinus pyralis luciferase – biochemical, luminescence, dose response (AID 1891).
Assay [14] can be described thus: Luminescence Cell-Based Dose Confirmation HTS to Identify Inhibitors of Platelet Dense Granule Release. [Related pubchem assays: 1663 (Primary HTS), 1678 (Summary of Project)]. It counts as functional.
Assay [15] addresses T4, Protein skinhead-1 (Caenorhabditis elegans, UniProt P34707).
T4 sequence (P34707 whole entry): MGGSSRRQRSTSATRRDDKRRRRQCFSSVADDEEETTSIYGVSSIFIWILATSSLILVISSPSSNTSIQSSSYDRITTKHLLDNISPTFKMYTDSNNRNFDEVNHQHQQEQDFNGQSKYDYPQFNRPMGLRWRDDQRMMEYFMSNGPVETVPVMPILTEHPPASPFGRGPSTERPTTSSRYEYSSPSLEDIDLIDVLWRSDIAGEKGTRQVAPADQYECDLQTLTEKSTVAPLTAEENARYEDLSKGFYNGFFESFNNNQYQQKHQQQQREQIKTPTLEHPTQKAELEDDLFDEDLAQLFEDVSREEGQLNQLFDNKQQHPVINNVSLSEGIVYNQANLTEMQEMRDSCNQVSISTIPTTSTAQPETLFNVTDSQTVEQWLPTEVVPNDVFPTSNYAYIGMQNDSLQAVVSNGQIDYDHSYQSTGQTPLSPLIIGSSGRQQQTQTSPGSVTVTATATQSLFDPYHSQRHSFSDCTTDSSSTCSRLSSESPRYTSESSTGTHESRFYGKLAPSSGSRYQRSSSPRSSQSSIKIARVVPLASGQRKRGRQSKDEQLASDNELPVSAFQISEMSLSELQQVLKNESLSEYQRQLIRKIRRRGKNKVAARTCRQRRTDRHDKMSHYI
In kind it is functional.

Assay [16] in a line: toxicity toward HepG2 liver cells – cell-based, plate reader, cherry-pick, antagonist series, cytotoxicity control, dose response (AID 743416). It counts as functional.
A short description of assay [17]: blockers of bursicon-stimulated LGR2 cAMP reporter – cell-based, HEK293, CRE-luciferase reporter, cherry pick, set 2, dose response (AID 743343).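 Note: transfected cells were stimulated with diluted bursicon conditioned medium after compound addition.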 It counts as functional.
The nature of assay [18]: blockade of melanocortin 4 receptor signaling – cell-based, plate reader, cherry pick, counter-screen for LGR2 antagonist project, dose response (AID 743444).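 Note: transfected HEK 293 cells stimulated with alpha-MSH peptide; potency of inhibitors of the alpha-MSH evoked signal.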 In kind it is functional. (The purpose of a counterscreen is to sort out artefacts and off-target activity.)
Assay [19] deals with T3, Oxysterols receptor LXR-beta. In kind it is functional, cell-based.
Assay [20] can be described thus: cells.
The nature of assay [21]: P. falciparum Dd2 growth inhibitors, dose response, SYBR Green, cherry-picked samples (AID 1159567). In kind it is functional, cell-based.
Assay [22] in a line: toxicity to human hepatoma HepG2 cells – cell-based, cherry-picked samples, cytotoxicity control, dose response (AID 1159577). It counts as functional.

Active and inactive are the calls of the source. Where only a bound is given, the exact number is not on record here.

The values below come from ChEMBL document CHEMBL1201862, “PubChem BioAssay data set” (2004).

A word on the IC50: it is the concentration needed to halve the response being measured. For orientation: CC50 means the concentration at which the toxic effect on the cells reaches its halfway point. A word on the AC50: it is the concentration at which the activity in the assay is half-maximal.

Sequence of Ephrin type-A receptor 4 (Q03137 whole entry, the tested form may be a part): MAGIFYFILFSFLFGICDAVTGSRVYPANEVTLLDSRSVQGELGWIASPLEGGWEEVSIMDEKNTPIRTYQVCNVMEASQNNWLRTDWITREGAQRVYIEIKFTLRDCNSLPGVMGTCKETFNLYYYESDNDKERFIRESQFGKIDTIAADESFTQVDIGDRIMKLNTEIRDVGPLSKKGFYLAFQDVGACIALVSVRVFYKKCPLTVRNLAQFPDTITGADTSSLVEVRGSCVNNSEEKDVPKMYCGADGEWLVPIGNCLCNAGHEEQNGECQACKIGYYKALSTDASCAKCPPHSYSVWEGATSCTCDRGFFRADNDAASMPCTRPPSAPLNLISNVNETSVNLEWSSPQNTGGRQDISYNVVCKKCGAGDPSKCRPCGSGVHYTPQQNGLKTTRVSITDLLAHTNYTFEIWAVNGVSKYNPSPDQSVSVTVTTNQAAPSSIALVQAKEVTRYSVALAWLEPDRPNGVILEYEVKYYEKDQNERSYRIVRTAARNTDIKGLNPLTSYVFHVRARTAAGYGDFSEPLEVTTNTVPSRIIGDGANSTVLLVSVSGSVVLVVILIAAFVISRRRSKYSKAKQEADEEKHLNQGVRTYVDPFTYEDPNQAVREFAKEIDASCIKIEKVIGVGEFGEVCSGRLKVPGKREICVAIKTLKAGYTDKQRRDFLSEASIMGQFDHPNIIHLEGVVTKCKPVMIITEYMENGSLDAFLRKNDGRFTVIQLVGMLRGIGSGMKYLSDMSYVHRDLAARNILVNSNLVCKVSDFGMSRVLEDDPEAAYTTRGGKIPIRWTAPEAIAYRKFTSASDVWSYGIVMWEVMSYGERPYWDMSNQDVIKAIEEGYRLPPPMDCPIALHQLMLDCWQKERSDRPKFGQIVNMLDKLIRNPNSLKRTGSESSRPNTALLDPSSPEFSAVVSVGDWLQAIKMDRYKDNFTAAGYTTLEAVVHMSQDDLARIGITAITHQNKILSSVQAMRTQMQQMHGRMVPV
Sequence of Genome polyprotein (P29990 2492-3391 limits assumed): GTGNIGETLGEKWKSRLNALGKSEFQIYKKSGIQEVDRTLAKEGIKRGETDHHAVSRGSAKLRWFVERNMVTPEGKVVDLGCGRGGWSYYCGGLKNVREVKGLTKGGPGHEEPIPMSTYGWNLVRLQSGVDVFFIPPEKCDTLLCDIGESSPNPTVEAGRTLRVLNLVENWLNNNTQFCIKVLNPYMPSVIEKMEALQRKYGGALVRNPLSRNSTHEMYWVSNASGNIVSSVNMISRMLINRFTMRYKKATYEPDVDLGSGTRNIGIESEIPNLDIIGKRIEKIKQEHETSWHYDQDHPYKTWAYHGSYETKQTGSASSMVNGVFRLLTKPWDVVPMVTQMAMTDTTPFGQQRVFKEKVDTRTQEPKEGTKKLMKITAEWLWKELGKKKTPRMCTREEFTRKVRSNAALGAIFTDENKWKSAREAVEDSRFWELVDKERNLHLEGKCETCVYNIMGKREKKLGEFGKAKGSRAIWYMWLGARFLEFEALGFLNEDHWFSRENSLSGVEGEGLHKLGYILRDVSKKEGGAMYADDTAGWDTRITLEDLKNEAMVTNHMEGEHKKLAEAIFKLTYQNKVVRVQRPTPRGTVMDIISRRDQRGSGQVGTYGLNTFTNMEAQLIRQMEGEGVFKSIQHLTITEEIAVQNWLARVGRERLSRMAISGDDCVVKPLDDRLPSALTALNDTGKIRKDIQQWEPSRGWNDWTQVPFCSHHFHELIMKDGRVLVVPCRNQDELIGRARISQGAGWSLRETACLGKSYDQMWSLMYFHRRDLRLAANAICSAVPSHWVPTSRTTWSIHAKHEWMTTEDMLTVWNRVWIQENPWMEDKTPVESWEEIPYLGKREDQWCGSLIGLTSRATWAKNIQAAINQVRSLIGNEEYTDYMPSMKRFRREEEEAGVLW
Sequence of Bifunctional protein GlmU (P9WMN3 whole entry): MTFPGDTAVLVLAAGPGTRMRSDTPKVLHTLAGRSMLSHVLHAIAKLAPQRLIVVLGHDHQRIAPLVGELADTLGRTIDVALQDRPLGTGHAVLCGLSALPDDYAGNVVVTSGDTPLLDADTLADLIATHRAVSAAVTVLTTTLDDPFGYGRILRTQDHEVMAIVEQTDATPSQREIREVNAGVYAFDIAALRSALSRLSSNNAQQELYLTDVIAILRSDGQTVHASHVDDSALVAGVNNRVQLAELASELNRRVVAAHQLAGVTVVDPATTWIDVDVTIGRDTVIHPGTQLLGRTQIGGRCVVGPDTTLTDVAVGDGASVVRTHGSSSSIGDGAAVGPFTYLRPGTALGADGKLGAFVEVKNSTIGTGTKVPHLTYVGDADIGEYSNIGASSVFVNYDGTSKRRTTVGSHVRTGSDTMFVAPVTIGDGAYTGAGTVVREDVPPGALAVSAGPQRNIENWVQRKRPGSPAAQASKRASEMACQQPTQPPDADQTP
Sequence of Disintegrin and metalloproteinase domain-containing protein 17 (P78536 whole entry, the tested form may be a part): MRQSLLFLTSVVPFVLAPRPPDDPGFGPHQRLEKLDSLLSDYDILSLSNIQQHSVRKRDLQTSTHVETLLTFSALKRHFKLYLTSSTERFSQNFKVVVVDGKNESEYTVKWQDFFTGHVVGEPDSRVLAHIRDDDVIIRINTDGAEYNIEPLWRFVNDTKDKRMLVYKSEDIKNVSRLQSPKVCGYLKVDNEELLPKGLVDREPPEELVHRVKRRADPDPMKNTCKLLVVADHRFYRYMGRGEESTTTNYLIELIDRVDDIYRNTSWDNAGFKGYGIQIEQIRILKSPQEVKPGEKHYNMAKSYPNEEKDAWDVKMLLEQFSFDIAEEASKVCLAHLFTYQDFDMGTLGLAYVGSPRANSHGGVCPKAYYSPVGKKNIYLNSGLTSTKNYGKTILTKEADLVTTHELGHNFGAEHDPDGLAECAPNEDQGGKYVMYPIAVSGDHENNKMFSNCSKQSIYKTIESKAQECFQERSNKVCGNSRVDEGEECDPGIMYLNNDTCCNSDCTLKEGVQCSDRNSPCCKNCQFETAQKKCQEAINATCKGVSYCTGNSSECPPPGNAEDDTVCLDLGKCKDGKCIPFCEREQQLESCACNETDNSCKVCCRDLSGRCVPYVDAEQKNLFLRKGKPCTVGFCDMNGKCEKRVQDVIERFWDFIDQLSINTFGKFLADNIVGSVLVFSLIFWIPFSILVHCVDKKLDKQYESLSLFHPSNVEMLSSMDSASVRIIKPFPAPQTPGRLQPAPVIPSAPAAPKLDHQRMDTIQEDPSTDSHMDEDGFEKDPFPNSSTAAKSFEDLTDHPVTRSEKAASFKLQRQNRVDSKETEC
Sequence of Luciferin 4-monooxygenase (P08659 whole entry): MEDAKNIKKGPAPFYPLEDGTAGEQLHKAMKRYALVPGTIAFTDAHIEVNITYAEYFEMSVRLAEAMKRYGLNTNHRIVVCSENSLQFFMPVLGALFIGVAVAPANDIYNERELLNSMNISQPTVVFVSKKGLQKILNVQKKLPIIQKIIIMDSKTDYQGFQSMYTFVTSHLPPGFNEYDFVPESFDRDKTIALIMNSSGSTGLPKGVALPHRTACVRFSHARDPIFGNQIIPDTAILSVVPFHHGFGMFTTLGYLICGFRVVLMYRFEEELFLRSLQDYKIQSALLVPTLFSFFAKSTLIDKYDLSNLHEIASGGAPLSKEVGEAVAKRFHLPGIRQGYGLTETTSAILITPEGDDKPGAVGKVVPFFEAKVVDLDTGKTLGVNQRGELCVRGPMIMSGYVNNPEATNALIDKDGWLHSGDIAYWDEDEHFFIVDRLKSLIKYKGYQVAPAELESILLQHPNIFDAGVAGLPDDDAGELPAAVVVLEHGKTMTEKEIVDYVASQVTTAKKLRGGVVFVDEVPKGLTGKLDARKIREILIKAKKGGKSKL
Sequence of Protein Tat (P04608 whole entry): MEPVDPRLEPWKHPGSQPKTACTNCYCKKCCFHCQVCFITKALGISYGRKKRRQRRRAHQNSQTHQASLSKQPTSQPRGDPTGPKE

As to `Cc1c(-c2nc(-c3ccc(C(F)(F)F)cc3)no2)n(C)oc1=O`, the IC50 in assay [1] is 1.6 µM (active).

Consider `COC(=O)C1=C(C(=O)OC)SC(=C2C(=S)C(C)(C)N(C(=O)CC(C)C)c3ccccc32)S1`, for which the CC50 in [2] was 49.5 µM (active).

For `Cc1ccc(CNC(=O)CCS(=O)(=O)c2ccc(Br)cc2)cc1`, in [3], the IC50 is 59.1 µM (active).

As to `O=C(O)c1ccc(-n2nc(C(F)(F)F)c3c2-c2ccoc2CC3)cc1`, the results for the IC50 in assay [4] and in assay [5] were 89 µM (active) and > 100 µM (active), respectively.

As to `CCOC(=O)c1cc(OC(=O)c2ccccc2OC)n(-c2ccccc2)n1`, the IC50 in assay [6] is 19.7 µM (active); in [7] it was > 69.5 µM (inactive); in assay [8], > 69.5 µM (inactive).

Turning to `O=C(O)C(=O)/C(=C\c1ccsc1)c1ccc2ccccc2n1`, the EC50 is 27.9 µM (active) in assay [9], 49 µM (active) in assay [10] and > 67.6 µM (inactive) in assay [12]. Besides, the IC50 in assay [11] is > 67.6 µM (inactive).

Consider `COc1cccc(CC(=O)Nc2ccc3c(c2)c(=O)n(C)n3-c2ccc(C(C)(C)C)cc2)c1`, for which the IC50 in assay [11] was > 67.6 µM (inactive). Also, in assay [12], the EC50 was > 67.6 µM (inactive).

On to `Cc1ccc(-c2noc(-c3cccs3)n2)cc1`, for which the EC50 in [13] is 3.98 µM (active); in assay [14], > 112 µM (not active); in assay [19], > 67.5 µM (inactive); in assay [20], > 67.5 µM (inactive). Also, in assay [15], the 50% inhibitory concentration (IC50) is 18.8 µM (active). Moreover, the values for the AC50 in assay [16], in assay [17] and in assay [18] were > 52 µM (inactive), 14.4 µM (active) and 22.3 µM (active), respectively.

As for `CC(C)C1Cc2c(C#N)c(N)sc(=S)c2CO1` (configuration not stated), in assay [6], the IC50 is 3.31 µM (active).

As to `COc1cc(CN2C[C@@H]3N[C@H](C2)[C@@H]3c2ccc(-c3ccc(C#N)cc3)cc2)cc(OC)c1`, the AC50 was 3.05 µM (active) in assay [21] and 10.5 µM (active) in assay [22].

For the compound `CO[C@H]1CN(C)C(=O)c2ccc(NC(=O)c3ccc(Oc4ccccc4)cc3)cc2OC[C@H](C)NC[C@H]1C`, the AC50 in [21] is 6.48 µM (active); in assay [22] it was 11.7 µM (active).
